Test results as given in PMC6496074, “The Evolution of Azole Resistance in Candida albicans Sterol 14α-Demethylase (CYP51) through Incremental Amino Acid Substitutions” (Antimicrobial Agents and Chemotherapy, 2019).
Where “and” joins values, the source holds several entries; their conditions need not be identical. Equal values may be shown once.

Key:
Assay in all cases: CYP51 reconstitution assay
Assay type in all cases: biochemical
CaCYP51 D278N = target: T1, CaCYP51 D278N (Candida albicans, UniProt P10613, D278N)
T1 construct: made in house; host or cells: E. coli DH5α (pCWori+)
Procedure: (§1) Azole antifungal agents were added in 2.5 μl dimethyl sulfoxide, followed by 10 min of incubation at 37°C prior to assay initiation with 4 mM β-NADPH-Na4. The samples were then shaken for 15 min at 37°C. Sterol metabolites were recovered by extraction with ethyl acetate, followed by derivatization with 0.1 ml N,O-bis(trimethylsilyl)trifluoroacetamide (BSTFA)–trimethylchlorosilane (TMCS) (99:1) and 0.3 ml anhydrous pyridine (2 h at 80°C), prior to analysis by gas chromatography-mass spectrometry (GC-MS) ([52]). IC50 determinations were performed in duplicate.

CaCYP51 D278N+G464S = target: T2, CaCYP51 D278N+G464S (Candida albicans, UniProt P10613, D278N/G464S)
T2 construct: made in house; host or cells: E. coli DH5α (pCWori+)
Procedure: as §1

CaCYP51 F126V = target: T3, CaCYP51 F126V (Candida albicans, UniProt P10613, F126V)
T3 construct: made in house; host or cells: E. coli DH5α (pCWori+)
Procedure: as §1

CaCYP51 F145L = target: T4, CaCYP51 F145L (Candida albicans, UniProt P10613, F145L)
T4 construct: made in house; host or cells: E. coli DH5α (pCWori+)
Procedure: as §1

CaCYP51 F449Y = target: T5, CaCYP51 F449Y (Candida albicans, UniProt P10613, F449Y)
T5 construct: made in house; host or cells: E. coli DH5α (pCWori+)
Procedure: as §1

CaCYP51 G307S = target: T6, CaCYP51 G307S (Candida albicans, UniProt P10613, G307S)
T6 construct: made in house; host or cells: E. coli DH5α (pCWori+)
Procedure: as §1

CaCYP51 G307S+G450E = target: T7, CaCYP51 G307S+G450E (Candida albicans, UniProt P10613, G307S/G450E)
T7 construct: made in house; host or cells: E. coli DH5α (pCWori+)
Procedure: as §1

CaCYP51 G448E = target: T8, CaCYP51 G448E (Candida albicans, UniProt P10613, G448E)
T8 construct: made in house; host or cells: E. coli DH5α (pCWori+)
Procedure: as §1

CaCYP51 G450E = target: T9, CaCYP51 G450E (Candida albicans, UniProt P10613, G450E)
T9 construct: made in house; host or cells: E. coli DH5α (pCWori+)
Procedure: as §1

CaCYP51 G464S = target: T10, CaCYP51 G464S (Candida albicans, UniProt P10613, G464S)
T10 construct: made in house; host or cells: E. coli DH5α (pCWori+)
Procedure: as §1

CaCYP51 I471T = target: T11, CaCYP51 I471T (Candida albicans, UniProt P10613, I471T)
T11 construct: made in house; host or cells: E. coli DH5α (pCWori+)
Procedure: as §1

CaCYP51 K143R = target: T12, CaCYP51 K143R (Candida albicans, UniProt P10613, K143R)
T12 construct: made in house; host or cells: E. coli DH5α (pCWori+)
Procedure: as §1

CaCYP51 P230L = target: T13, CaCYP51 P230L (Candida albicans, UniProt P10613, P230L)
T13 construct: made in house; host or cells: E. coli DH5α (pCWori+)
Procedure: as §1

CaCYP51 Q474K = target: T14, CaCYP51 Q474K (Candida albicans, UniProt P10613, Q474K)
T14 construct: made in house; host or cells: E. coli DH5α (pCWori+)
Procedure: as §1

CaCYP51 R467K = target: T15, CaCYP51 R467K (Candida albicans, UniProt P10613, R467K)
T15 construct: made in house; host or cells: E. coli DH5α (pCWori+)
Procedure: as §1

CaCYP51 S279F = target: T16, CaCYP51 S279F (Candida albicans, UniProt P10613, S279F)
T16 construct: made in house; host or cells: E. coli DH5α (pCWori+)
Procedure: as §1

CaCYP51 S405F = target: T17, CaCYP51 S405F (Candida albicans, UniProt P10613, S405F)
T17 construct: made in house; host or cells: E. coli DH5α (pCWori+)
Procedure: as §1

CaCYP51 V437I = target: T18, CaCYP51 V437I (Candida albicans, UniProt P10613, V437I)
T18 construct: made in house; host or cells: E. coli DH5α (pCWori+)
Procedure: as §1

CaCYP51 V456I = target: T19, CaCYP51 V456I (Candida albicans, UniProt P10613, V456I)
T19 construct: made in house; host or cells: E. coli DH5α (pCWori+)
Procedure: as §1

CaCYP51 V488I = target: T20, CaCYP51 V488I (Candida albicans, UniProt P10613, V488I)
T20 construct: made in house; host or cells: E. coli DH5α (pCWori+)
Procedure: as §1

CaCYP51 Wild type = target: T21, CaCYP51 Wild type (Candida albicans, UniProt P10613); conditions: Wild type
T21 construct: made in house; host or cells: E. coli DH5α (pCWori+)
Procedure: as §1

CaCYP51 Y118A = target: T22, CaCYP51 Y118A (Candida albicans, UniProt P10613, Y118A)
T22 construct: made in house; host or cells: E. coli DH5α (pCWori+)
Procedure: as §1

CaCYP51 Y132F = target: T23, CaCYP51 Y132F (Candida albicans, UniProt P10613, Y132F); conditions: mean ± SD, duplicate
T23 construct: made in house; host or cells: E. coli DH5α (pCWori+)
Procedure: as §1

CaCYP51 Y132H = target: T24, CaCYP51 Y132H (Candida albicans, UniProt P10613, Y132H)
T24 construct: made in house; host or cells: E. coli DH5α (pCWori+)
Procedure: as §1

CaCYP51 Y132H+K143R = target: T25, CaCYP51 Y132H+K143R (Candida albicans, UniProt P10613, K143R/Y132H)
T25 construct: made in house; host or cells: E. coli DH5α (pCWori+)
Procedure: as §1

CaCYP51 Y257H = target: T26, CaCYP51 Y257H (Candida albicans, UniProt P10613, Y257H)
T26 construct: made in house; host or cells: E. coli DH5α (pCWori+)
Procedure: as §1

CaCYP51 Y447H = target: T27, CaCYP51 Y447H (Candida albicans, UniProt P10613, Y447H)
T27 construct: made in house; host or cells: E. coli DH5α (pCWori+)
Procedure: as §1

[1] = 0.25 h, 4 μM triazole, % of activity without triazole, read-out: Residual CYP51 activity (%) ± SD

T2 sequence (P10613 whole entry, looked up, stated change not applied): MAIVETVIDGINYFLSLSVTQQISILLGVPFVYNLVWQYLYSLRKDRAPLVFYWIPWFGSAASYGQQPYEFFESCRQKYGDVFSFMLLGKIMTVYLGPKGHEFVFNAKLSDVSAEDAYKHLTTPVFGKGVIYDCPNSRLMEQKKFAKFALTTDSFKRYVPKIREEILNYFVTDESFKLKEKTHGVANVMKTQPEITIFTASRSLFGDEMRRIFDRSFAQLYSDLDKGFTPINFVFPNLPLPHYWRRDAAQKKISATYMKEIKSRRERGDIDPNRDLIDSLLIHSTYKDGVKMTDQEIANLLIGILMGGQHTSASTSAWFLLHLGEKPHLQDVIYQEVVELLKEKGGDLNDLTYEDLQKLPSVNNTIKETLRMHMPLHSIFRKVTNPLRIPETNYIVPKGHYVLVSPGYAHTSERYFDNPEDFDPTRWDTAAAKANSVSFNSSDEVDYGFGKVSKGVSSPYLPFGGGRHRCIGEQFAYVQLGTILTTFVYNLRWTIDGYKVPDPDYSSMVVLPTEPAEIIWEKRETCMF
T21 sequence (P10613 whole entry, looked up, natural form): as the sequence (P10613 whole entry, looked up, stated change not applied) above
T10 sequence (P10613 whole entry, looked up, stated change not applied): as above
T1 sequence (P10613 whole entry, looked up, stated change not applied): as above
T13 sequence (P10613 whole entry, looked up, stated change not applied): as above
T22 sequence (P10613 whole entry, looked up, stated change not applied): as above
T8 sequence (P10613 whole entry, looked up, stated change not applied): as above
T15 sequence (P10613 whole entry, looked up, stated change not applied): as above
T27 sequence (P10613 whole entry, looked up, stated change not applied): as above

CC[C@@H]([C@H](C)O)n1ncn(-c2ccc(N3CCN(c4ccc(OC[C@@H]5CO[C@@](Cn6cncn6)(c6ccc(F)cc6F)C5)cc4)CC3)cc2)c1=O [Posaconazole, posaconazole]
remaining activity at 4 µM (CaCYP51 D278N; [1]): 14.8 ± 0.92%
IC50 (CaCYP51 D278N; mean ± SD, duplicate): 908 ± 20 nM
fold increase in IC50 over wild-type enzyme (CaCYP51 D278N+G464S): 4.8 fold
remaining activity at 4 µM (CaCYP51 D278N+G464S; [1]): 15 ± 1.16%
IC50 (CaCYP51 D278N+G464S; mean ± SD, duplicate): 930 ± 9 nM
remaining activity at 4 µM (CaCYP51 F126V; [1]): 0.1 ± 0.01%
IC50 (CaCYP51 F126V; mean ± SD, duplicate): 304 ± 70 nM
remaining activity at 4 µM (CaCYP51 F145L; [1]): 1.37 ± 1.21%
IC50 (CaCYP51 F145L; mean ± SD, duplicate): 359 ± 18 nM
remaining activity at 4 µM (CaCYP51 F449Y; [1]): 5.42 ± 0.04%
IC50 (CaCYP51 F449Y; mean ± SD, duplicate): 366 ± 37 nM
remaining activity at 4 µM (CaCYP51 G307S; [1]): 0.71 ± 0.04%
IC50 (CaCYP51 G307S; mean ± SD, duplicate): 288 ± 42 nM
remaining activity at 4 µM (CaCYP51 G307S+G450E; [1]): 0.26 ± 0.11%
IC50 (CaCYP51 G307S+G450E; mean ± SD, duplicate): 312 ± 15 nM
remaining activity at 4 µM (CaCYP51 G448E; [1]): 7.89 ± 0.29%
IC50 (CaCYP51 G448E; mean ± SD, duplicate): 542 ± 51 nM
remaining activity at 4 µM (CaCYP51 G450E; [1]): 15.6 ± 0.21%
IC50 (CaCYP51 G450E; mean ± SD, duplicate): 908 ± 132 nM
remaining activity at 4 µM (CaCYP51 G464S; [1]): 0.54 ± 0.09%
IC50 (CaCYP51 G464S; mean ± SD, duplicate): 253 ± 24 nM
remaining activity at 4 µM (CaCYP51 I471T; [1]): 7.71 ± 0.58%
IC50 (CaCYP51 I471T; mean ± SD, duplicate): 522 ± 64 nM
remaining activity at 4 µM (CaCYP51 K143R; [1]): 13.09 ± 0.02%
IC50 (CaCYP51 K143R; mean ± SD, duplicate): 789 ± 3 nM
remaining activity at 4 µM (CaCYP51 P230L; [1]): 0.21 ± 0.05%
IC50 (CaCYP51 P230L; mean ± SD, duplicate): 238 ± 2 nM
remaining activity at 4 µM (CaCYP51 Q474K; [1]): 3.23 ± 0.18%
IC50 (CaCYP51 Q474K; mean ± SD, duplicate): 301 ± 17 nM
remaining activity at 4 µM (CaCYP51 R467K; [1]): 3.62 ± 0.09%
IC50 (CaCYP51 R467K; mean ± SD, duplicate): 380 ± 11 nM
remaining activity at 4 µM (CaCYP51 S279F; [1]): 20.64 ± 0.1%
IC50 (CaCYP51 S279F; mean ± SD, duplicate): 912 ± 16 nM
remaining activity at 4 µM (CaCYP51 S405F; [1]): 9.38 ± 0.53%
IC50 (CaCYP51 S405F; mean ± SD, duplicate): 637 ± 54 nM
remaining activity at 4 µM (CaCYP51 V437I; [1]): 0.59 ± 0.2%
IC50 (CaCYP51 V437I; mean ± SD, duplicate): 319 ± 9 nM
remaining activity at 4 µM (CaCYP51 V456I; [1]): 6.66 ± 0.05%
IC50 (CaCYP51 V456I; mean ± SD, duplicate): 602 ± 17 nM
remaining activity at 4 µM (CaCYP51 V488I; [1]): 2.11 ± 0.14%
IC50 (CaCYP51 V488I; mean ± SD, duplicate): 481 ± 52 nM
remaining activity at 4 µM (CaCYP51 Wild type; [1]): 0.66 ± 0.02%
IC50 (CaCYP51 Wild type; mean ± SD, duplicate, read-out: IC50): 200 nM and 195 nM
remaining activity at 4 µM (CaCYP51 Y118A; [1]): 0.46 ± 0.35%
IC50 (CaCYP51 Y118A; mean ± SD, duplicate): 206 ± 4 nM
IC50 (CaCYP51 Y132F): 343 ± 20 nM
remaining activity at 4 µM (CaCYP51 Y132H; [1]): 0.18 ± 0.06%
IC50 (CaCYP51 Y132H; mean ± SD, duplicate): 195 ± 3 nM
remaining activity at 4 µM (CaCYP51 Y132H+K143R; [1]): 0.74 ± 0.05%
IC50 (CaCYP51 Y132H+K143R; mean ± SD, duplicate): 196 ± 7 nM
remaining activity at 4 µM (CaCYP51 Y257H; [1]): 6.42 ± 0.59%
IC50 (CaCYP51 Y257H; mean ± SD, duplicate): 611 ± 17 nM
remaining activity at 4 µM (CaCYP51 Y447H; [1]): 8.19 ± 3.58%
IC50 (CaCYP51 Y447H; mean ± SD, duplicate): 439 ± 135 nM
